Experimental data reported in US10806793B2, “Mucosal delivery of therapeutic molecules, proteins, or particles coupled to ceramide lipids” (Children's Medical Center Corporation, priority 2008, dated 2020).

Key:
[1] = test system: C12-GM1 transport to the TGN; test: Brefeldin effect on C12-GM1 transport; assay type: cell-based
[2] = Orskov et al., 1993; cited from earlier work

Molecule | effect on C12-GM1 transport to the TGN [1] | potency in vivo [2]
C[C@H]1CCC/C=C/[C@@H]2C[C@H](O)C[C@H]2[C@H](O)/C=C/C(=O)O1 [Brefeldin-1] | inhibits C12-GM1 transport to the TGN | –
GLP1(7-36)amide: secreted form of GLP1 in which the carboxylic acid of Arg at position 36 has been amidated | – | equally potent
GLP1(7-37): secreted form of GLP1 that contains a C-terminal Gly residue | – | equally potent
